Experimental data reported in the supplement of paper PMC10307832.

What was measured:
Assay in all cases: relative viability (nuclei count vs DMSO), 5 days (fraction); higher = more cells survive
Kobe2602 + Crizotinib = compound: C1=CC(=CC=C1NC(=S)NNC2=C(C=C(C=C2[N+](=O)[O-])C(F)(F)F)[N+](=O)[O-])F [Kobe2602] + C[C@@H](Oc1cc(-c2cnn(C3CCNCC3)c2)cnc1N)c1c(Cl)ccc(F)c1Cl [Crizotinib] (partner 1 µM)
Summary of the method: (§1)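 A single step with final 0.05% Triton X-100, 1% formaldehyde and 1 ug/ml Hoechst fixed the cells and stained nuclei 5 days after treatment. Lung cancer cell lines in 1536-well plates had been treated by pin tool the day after seeding with one drug alone or a fixed anchor-drug dose plus five library-drug doses (not always all listed) in √10 steps, and nuclei were counted on 4× images. Relative viability is the ratio of nuclei in treated wells to nuclei in vehicle wells, taken as the median of duplicate plates.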

Kobe2602 + Phenformin = compound: C1=CC(=CC=C1NC(=S)NNC2=C(C=C(C=C2[N+](=O)[O-])C(F)(F)F)[N+](=O)[O-])F [Kobe2602] + N=C(N)NC(=N)NCCc1ccccc1 [Phenformin] (partner 250 µM)
Summary of the method: as §1

Cabozantinib + Dasatinib = compound: COc1cc2nccc(Oc3ccc(NC(=O)C4(C(=O)Nc5ccc(F)cc5)CC4)cc3)c2cc1OC [Cabozantinib] + Cc1nc(Nc2ncc(C(=O)Nc3c(C)cccc3Cl)s2)cc(N2CCN(CCO)CC2)n1 [Dasatinib] (partner 0.075 µM)
Summary of the method: as §1

Zosuquidar + Bortezomib = compound: O[C@@H](COc1cccc2ncccc12)CN1CCN([C@@H]2c3ccccc3[C@@H]3[C@H](c4ccccc42)C3(F)F)CC1 [Zosuquidar] + CC(C)C[C@H](NC(=O)[C@H](Cc1ccccc1)NC(=O)c1cnccn1)B(O)O [Bortezomib] (partner 0.002 µM)
Summary of the method: as §1

Cell Line	relative viability (Kobe2602 + Crizotinib; first compound 0.2 µM)	relative viability (Kobe2602 + Crizotinib; first compound 0.6325 µM)	relative viability (Kobe2602 + Crizotinib; first compound 2 µM)	relative viability (Kobe2602 + Crizotinib; first compound 6.325 µM)	relative viability (Kobe2602 + Crizotinib; first compound 20 µM)	relative viability (Kobe2602 + Phenformin; first compound 0.2 µM)	relative viability (Kobe2602 + Phenformin; first compound 0.6325 µM)	relative viability (Kobe2602 + Phenformin; first compound 2 µM)	relative viability (Kobe2602 + Phenformin; first compound 6.325 µM)	relative viability (Kobe2602 + Phenformin; first compound 20 µM)	relative viability (Cabozantinib + Dasatinib; first compound 0.02 µM)	relative viability (Cabozantinib + Dasatinib; first compound 0.06325 µM)	relative viability (Cabozantinib + Dasatinib; first compound 0.2 µM)	relative viability (Cabozantinib + Dasatinib; first compound 0.6325 µM)	relative viability (Cabozantinib + Dasatinib; first compound 2 µM)	relative viability (Zosuquidar + Bortezomib; first compound 0.01 µM)	relative viability (Zosuquidar + Bortezomib; first compound 0.03162 µM)	relative viability (Zosuquidar + Bortezomib; first compound 0.3162 µM)	relative viability (Zosuquidar + Bortezomib; first compound 1 µM)	relative viability (Zosuquidar + Bortezomib; first compound 0.1 µM)
CAL-12T	0.604	0.569	0.618	0.641	0.549	0.586	0.597	0.579	0.538	0.449	0.324	0.341	0.354	0.327	0.221	0.974	1.15	1.03	0.735	–
COR-L23	0.656	0.573	0.647	0.745	0.7	0.469	0.453	0.427	0.463	0.422	0.537	0.425	0.466	0.452	0.36	0.925	0.969	0.877	1.08	0.893
COR-L 105	0.85	0.838	0.653	0.966	0.831	0.487	0.491	0.422	0.542	0.494	0.352	0.283	–	0.314	0.314	0.738	0.742	1.16	0.874	0.899
ChaGo-K-1	1.16	1.2	1.14	1.13	0.935	0.564	0.574	0.523	0.463	0.463	0.552	0.652	0.519	0.634	0.542	0.854	0.966	0.967	0.787	1.08
EKVX	1.11	0.705	0.865	0.887	0.956	0.27	0.237	0.22	0.233	0.248	0.53	0.592	–	0.488	0.461	1.05	0.975	0.984	1.02	0.839
EMC-BAC-2	0.759	0.799	0.754	0.755	0.747	0.575	0.591	0.508	0.538	0.553	0.244	0.334	0.286	0.292	0.262	1.02	1.07	1.22	1.09	1.02
EPLC-272H	0.772	0.905	0.967	0.899	0.914	0.313	0.32	0.31	0.323	0.294	0.245	0.403	0.26	0.26	0.285	0.844	0.956	1.16	0.938	0.998
H3255	0.906	1.12	0.802	0.839	0.874	0.339	0.359	0.422	0.315	0.334	0.382	0.513	–	0.459	0.309	0.788	0.871	0.798	0.569	0.661
